The test system of experiment [1] is CCRF-CEM lymphoblasts. The experiment is described as follows: Cell cycle and apoptosis analysis (propidium iodide flow cytometry). To be noted: 24 h. The class given is cell-based, human. The method, then: On the other hand, we wanted to find out whether compounds 48–50, 53, 54, 57, 59–63, 65–70, and 72 can stop the cell cycle of cancer cells, as it has been previously reported for chloroquine. For a more detailed description of the biological activity of the studied derivatives, we performed a cell cycle analysis of the most sensitive CCRF-CEM cells after 24 h of incubation with the novel 7-chloro-(4-thioalkylquinoline) derivatives (Table 4).
The effect of compounds on cell cycle distribution was determined to gain insights into the mechanism of its antiproliferative activity. […] For example, as compared with control, the percentage of cells in G2/M phases was increased by treatment with 5 × IC50 μM of compounds for 24 h (Table 4). […] As shown in (Table 4), there was a marked increase in the sub-G1 from 2.91 in untreated cells. 5-Bromo-2-deoxyuridine (BrDU) is incorporated into newly synthesized DNA, and 5-bromouridine (BrU) pulse labeling is therefore commonly used as a proliferation marker. Low BrDU and BrU incorporation into the DNA or RNA, respectively, of treated cells with all compounds at 5 × IC50 reflected inhibition of DNA and RNA synthesis, indicating irreversible apoptotic changes. The percentage of […] cells incorporating 5-bromouridine is proportional to the transcriptional activity of CCRF-CEM cells.
CCRF-CEM cells were seeded at a density of 1 × 10^6 cells per one mL in 6-well plates (TTP) and were cultivated with compounds at concentrations corresponding to 1 × or 5 × IC50 value. Together with the compounds-treated cells, a vehicle-treated sample was harvested at the same time point. After 24 h, the cells were washed with cold phosphate-buffered saline (PBS) and fixed in 70% ethanol added dropwise and stored overnight at −20 °C. Afterward, cells were washed in hypotonic citrate buffer, treated with RNase (50 µg mL^−1), and stained with propidium iodide. Flow cytometry using a 488 nm single beam laser (Becton Dickinson) was used for measurement. The cell cycle was analyzed by the software ModFitLT (Verity), and apoptosis was measured in a logarithmic model expressing the percentage of the particles with propidium content lower than cells in the G0/G1 phase (<G1) of the cell cycle. Half of the sample was used for pH3Ser10 antibody (Sigma) labeling and subsequent flow cytometry analysis of the cells in mitosis.
A general note: A flow cytometer gives signals particle by particle.

For experiment [2], the system named is CCRF-CEM lymphoblasts. Briefly: BrDU incorporation analysis (DNA synthesis). The class given is cell-based, human. The note with it: 24 h, 5 × IC50 (second value of cell). The method, then:
The effect of compounds on cell cycle distribution was determined to gain insights into the mechanism of its antiproliferative activity. […] For example, as compared with control, the percentage of cells in G2/M phases was increased by treatment with 5 × IC50 μM of compounds for 24 h (Table 4). […] As shown in (Table 4), there was a marked increase in the sub-G1 from 2.91 in untreated cells. 5-Bromo-2-deoxyuridine (BrDU) is incorporated into newly synthesized DNA, and 5-bromouridine (BrU) pulse labeling is therefore commonly used as a proliferation marker. Low BrDU and BrU incorporation into the DNA or RNA, respectively, of treated cells with all compounds at 5 × IC50 reflected inhibition of DNA and RNA synthesis, indicating irreversible apoptotic changes. The percentage of […] cells incorporating 5-bromouridine is proportional to the transcriptional activity of CCRF-CEM cells. Cells were cultivated and processed as described in the previous method. Before harvesting, BrDU 10 µM was added to the cells for pulse-labeling for 30 min. Then, cells were washed by PBS and fixed with −20 °C cold 70% ethanol and stored in a freezer overnight. Before analysis, the samples were incubated on ice for 30 min, washed once with PBS, and re-suspended in 2 M HCl for 30 min at rt to denature their DNA. Following neutralization with a 0.1 M Na2B4O7 (borax) solution, the cells were washed with PBS containing 0.5% Tween-20 and 1% BSA. Next, staining with primary anti-BrDU antibody (Exbio) was performed for 30 min at rt in the dark. Cells were then washed with PBS and stained with secondary anti-mouse-FITC antibody (Sigma) at rt in the dark. After another wash with PBS and incubation with propidium iodide (0.1 mg × mL^−1) and RNase A (0.5 mg × mL^−1) for 1 h at rt in the dark, cells were analyzed by flow cytometry using a 488 nm single beam laser (FACSCalibur, Becton Dickinson, Franklin Lakes, NJ, USA).

[3] abbreviates: 5 × IC50 (second value of cell).

`COc1ccc(C(=O)OCCS(=O)(=O)c2cc[n+]([O-])c3cc(Cl)ccc23)cc1` [Compound 63, 2-[(N-Oxide 7-chloroquinolin-4-yl)sulfonyl]ethyl-4-methoxybenzoate]: in the experiment with CCRF-CEM lymphoblasts [1] (1 × IC50 (first value of cell)), the “>G2/M, % of Total Cellular Populations” value came to 8.56%; the “G0/G1, % of Total Cellular Populations” value came to 42.76%; the “G2/M, % of Total Cellular Populations” value was 16.81%; the “S, % of Total Cellular Populations” value came to 40.42%. For the same compound, the “Sub-G1 Apoptosis, % of Total Cellular Populations” value (“Sub-G1 Apoptosis, %” for short) with CCRF-CEM lymphoblasts [1] (1 × IC50 (first value of cell)) was found to be 3.41%. Also, in the experiment on CCRF-CEM lymphoblasts [1] (setting [3]), the “>G2/M, % of Total Cellular Populations” value stood at 11.38%; the “G0/G1, % of Total Cellular Populations” value was 34.13%; the “G2/M, % of Total Cellular Populations” value came out at 17.88%; the “S, % of Total Cellular Populations” value is given as 47.99%. For the same compound, the “Sub-G1 Apoptosis, %” value in the experiment on CCRF-CEM lymphoblasts [1] (setting [3]) stood at 12.97%. Also, the “DNA Synthesis (% positive of cells)” value in the experiment on CCRF-CEM lymphoblasts [2] worked out at 13.54%.
Turning to `COc1ccc(C(=O)OCCS(=O)(=O)c2cc[n+]([O-])c3cc(Cl)ccc23)cc1[N+](=O)[O-]` [Compound 69, 2-[(N-Oxide 7-chloroquinolin-4-yl)sulfonyl]ethyl-4-methoxy-3-nitrobenzoate], in the experiment with CCRF-CEM lymphoblasts [1] (1 × IC50 (first value of cell)), the “>G2/M, % of Total Cellular Populations” value worked out at 8.58%; the “G0/G1, % of Total Cellular Populations” value is reported as 43.48%; the “G2/M, % of Total Cellular Populations” value came to 20.83%; the “S, % of Total Cellular Populations” value amounted to 35.7%. Also, the “Sub-G1 Apoptosis, %” value in the experiment with CCRF-CEM lymphoblasts [1] (1 × IC50 (first value of cell)) amounted to 3.3%. Besides, in the experiment with CCRF-CEM lymphoblasts [1] (setting [3]), the “>G2/M, % of Total Cellular Populations” value was 12.52%; the “G0/G1, % of Total Cellular Populations” value came out at 38.16%; the “G2/M, % of Total Cellular Populations” value is listed as 19.27%; the “S, % of Total Cellular Populations” value was 42.58%. The “Sub-G1 Apoptosis, %” value in the experiment on CCRF-CEM lymphoblasts [1] (setting [3]) is 13.89%. Besides, the “DNA Synthesis (% positive of cells)” value in the experiment on CCRF-CEM lymphoblasts [2] is 4.22%.
For `O=C(OCCS(=O)(=O)c1cc[n+]([O-])c2cc(Cl)ccc12)c1ccc(C(F)(F)F)cc1` [Compound 72, 2-[(N-Oxide 7-chloroquinolin-4-yl)sulfonyl]ethyl-4-(trifluoromethyl)benzoate], in the experiment on CCRF-CEM lymphoblasts [1] (1 × IC50 (first value of cell)), the “>G2/M, % of Total Cellular Populations” value was determined as 8.35%; the “G0/G1, % of Total Cellular Populations” value was determined as 47.22%; the “G2/M, % of Total Cellular Populations” value is reported as 18.46%; the “S, % of Total Cellular Populations” value stood at 34.32%. Further, the “Sub-G1 Apoptosis, %” value in the experiment with CCRF-CEM lymphoblasts [1] (1 × IC50 (first value of cell)) stood at 4.05%. For the same compound, in the experiment on CCRF-CEM lymphoblasts [1] (setting [3]), the “>G2/M, % of Total Cellular Populations” value worked out at 13.12%; the “G0/G1, % of Total Cellular Populations” value is recorded as 31.36%; the “G2/M, % of Total Cellular Populations” value worked out at 21.98%; the “S, % of Total Cellular Populations” value came out at 46.65%. Also, the “Sub-G1 Apoptosis, %” value with CCRF-CEM lymphoblasts [1] (setting [3]) was found to be 10.12%. Moreover, the “DNA Synthesis (% positive of cells)” value in the experiment with CCRF-CEM lymphoblasts [2] was found to be 4.35%.
Regarding `COc1ccccc1C(=O)OCCS(=O)(=O)c1cc[n+]([O-])c2cc(Cl)ccc12` [Compound 68, 2-[(N-Oxide 7-chloroquinolin-4-yl)sulfonyl]ethyl-2-methoxybenzoate], in the experiment on CCRF-CEM lymphoblasts [1] (1 × IC50 (first value of cell)), the “>G2/M, % of Total Cellular Populations” value came to 9.87%; the “G0/G1, % of Total Cellular Populations” value turned out to be 35.73%; the “G2/M, % of Total Cellular Populations” value was determined as 18.54%; the “S, % of Total Cellular Populations” value was 45.73%. Moreover, the “Sub-G1 Apoptosis, %” value in the experiment with CCRF-CEM lymphoblasts [1] (1 × IC50 (first value of cell)) is given as 2.71%. In addition, in the experiment with CCRF-CEM lymphoblasts [1] (setting [3]), the “>G2/M, % of Total Cellular Populations” value is recorded as 9.65%; the “G0/G1, % of Total Cellular Populations” value was determined as 48.5%; the “G2/M, % of Total Cellular Populations” value turned out to be 19.64%; the “S, % of Total Cellular Populations” value is 31.86%. Besides, the “Sub-G1 Apoptosis, %” value in the experiment on CCRF-CEM lymphoblasts [1] (setting [3]) came to 7.16%. The “DNA Synthesis (% positive of cells)” value with CCRF-CEM lymphoblasts [2] came to 7.18%.
As for `Cc1ccc([N+](=O)[O-])c(C(=O)OCCS(=O)(=O)c2cc[n+]([O-])c3cc(Cl)ccc23)c1` [Compound 70, 2-[(N-Oxide 7-chloroquinolin-4-yl)sulfonyl]ethyl-5-methyl-2-nitrobenzoate], in the experiment on CCRF-CEM lymphoblasts [1] (1 × IC50 (first value of cell)), the “>G2/M, % of Total Cellular Populations” value was 10.54%; the “G0/G1, % of Total Cellular Populations” value is 39.54%; the “G2/M, % of Total Cellular Populations” value came to 21.99%; the “S, % of Total Cellular Populations” value is on record as 38.46%. The “Sub-G1 Apoptosis, %” value with CCRF-CEM lymphoblasts [1] (1 × IC50 (first value of cell)) was found to be 3.21%. In the experiment on CCRF-CEM lymphoblasts [1] (setting [3]), the “>G2/M, % of Total Cellular Populations” value worked out at 10.33%; the “G0/G1, % of Total Cellular Populations” value is listed as 33.44%; the “G2/M, % of Total Cellular Populations” value worked out at 23.25%; the “S, % of Total Cellular Populations” value is given as 43.31%. Further, the “Sub-G1 Apoptosis, %” value in the experiment on CCRF-CEM lymphoblasts [1] (setting [3]) is given as 13.75%. The “DNA Synthesis (% positive of cells)” value with CCRF-CEM lymphoblasts [2] is 4.88%.
Turning to `COc1ccc(OC)c(C(=O)OCCS(=O)(=O)c2cc[n+]([O-])c3cc(Cl)ccc23)c1` [Compound 65, 2-[(N-Oxide 7-chloroquinolin-4-yl)sulfonyl]ethyl-2,5-dimethoxybenzoate], in the experiment on CCRF-CEM lymphoblasts [1] (1 × IC50 (first value of cell)), the “>G2/M, % of Total Cellular Populations” value is on record as 7.55%; the “G0/G1, % of Total Cellular Populations” value came out at 40.82%; the “G2/M, % of Total Cellular Populations” value is recorded as 20.04%; the “S, % of Total Cellular Populations” value is recorded as 39.14%. For the same compound, the “Sub-G1 Apoptosis, %” value in the experiment with CCRF-CEM lymphoblasts [1] (1 × IC50 (first value of cell)) is on record as 17.77%. Moreover, in the experiment with CCRF-CEM lymphoblasts [1] (setting [3]), the “>G2/M, % of Total Cellular Populations” value was determined as 7.13%; the “G0/G1, % of Total Cellular Populations” value is recorded as 47.21%; the “G2/M, % of Total Cellular Populations” value stood at 19.99%; the “S, % of Total Cellular Populations” value came to 32.8%. Moreover, the “Sub-G1 Apoptosis, %” value in the experiment with CCRF-CEM lymphoblasts [1] (setting [3]) turned out to be 8.67%. Moreover, the “DNA Synthesis (% positive of cells)” value in the experiment with CCRF-CEM lymphoblasts [2] is given as 19.73%.
On to `COc1cc(OC)c(C(=O)OCCS(=O)(=O)c2cc[n+]([O-])c3cc(Cl)ccc23)cc1OC` [Compound 66, 2-[(N-Oxide 7-chloroquinolin-4-yl)sulfonyl]ethyl-2,4,5-trimethoxybenzoate], for which, in the experiment with CCRF-CEM lymphoblasts [1] (1 × IC50 (first value of cell)), the “>G2/M, % of Total Cellular Populations” value was determined as 10.42%; the “G0/G1, % of Total Cellular Populations” value is listed as 39.53%; the “G2/M, % of Total Cellular Populations” value is reported as 16.6%; the “Sub-G1 Apoptosis, %” value is listed as 2.95%. Also, in the experiment on CCRF-CEM lymphoblasts [1] (setting [3]), the “>G2/M, % of Total Cellular Populations” value came out at 10.45%; the “G0/G1, % of Total Cellular Populations” value is 48.53%; the “G2/M, % of Total Cellular Populations” value is recorded as 26.56%; the “S, % of Total Cellular Populations” value is 24.9%. The “Sub-G1 Apoptosis, %” value in the experiment with CCRF-CEM lymphoblasts [1] (setting [3]) is on record as 11.72%. For the same compound, in the experiment on CCRF-CEM lymphoblasts [2], the “DNA Synthesis (% positive of cells)” value worked out at 9.68%.

The values are drawn from publication PMC9607427, “Novel 7-Chloro-(4-thioalkylquinoline) Derivatives: Synthesis and Antiproliferative Activity through Inducing Apoptosis and DNA/RNA Damage” (Pharmaceuticals, 2022).
